Data reported in ChEMBL document CHEMBL1159057, “Novel anilinophthalimide derivatives as potential probes for beta-amyloid plaque in the brain” (Bioorg Med Chem, 2010).
The source made the active and inactive calls. No cut-off for these calls is given here.

Assays:
[1] = Binding affinity to beta-amyloid plaques
[2] = biological target: T1, Amyloid-beta precursor protein (Homo sapiens, UniProt P05067); assay: Displacement of [125I-N-Methyl-4-(4-bromoanilino)phthalimide from beta-amyloid plaques isolated from Alzheimer's disease patient brain
Blood [3] = assay: Biodistribution in Kunming mouse blood at 2 uCi, iv after 2 mins; format: ADME, organism-based; conditions: in vivo
Blood [4] = assay: Biodistribution in Kunming mouse blood at 2 uCi, iv after 10 mins; format: ADME, organism-based; conditions: in vivo
Blood [5] = assay: Biodistribution in Kunming mouse blood at 2 uCi, iv after 30 mins; format: ADME, organism-based; conditions: in vivo, 0.5 h
Blood [6] = assay: Biodistribution in Kunming mouse blood at 2 uCi, iv after 60 mins; format: ADME, organism-based; conditions: in vivo, 1 h
Heart [7] = assay: Biodistribution in Kunming mouse heart at 2 uCi, iv after 2 mins; format: ADME, organism-based; conditions: in vivo
Heart [8] = assay: Biodistribution in Kunming mouse heart at 2 uCi, iv after 10 mins; format: ADME, organism-based; conditions: in vivo
Heart [9] = assay: Biodistribution in Kunming mouse heart at 2 uCi, iv after 30 mins; format: ADME, organism-based; conditions: in vivo, 0.5 h
Heart [10] = assay: Biodistribution in Kunming mouse heart at 2 uCi, iv after 60 mins; format: ADME, organism-based; conditions: in vivo, 1 h
Lung [11] = assay: Biodistribution in Kunming mouse lung at 2 uCi, iv after 2 mins; format: ADME, organism-based; conditions: in vivo
Lung [12] = assay: Biodistribution in Kunming mouse lung at 2 uCi, iv after 10 mins; format: ADME, organism-based; conditions: in vivo
Lung [13] = assay: Biodistribution in Kunming mouse lung at 2 uCi, iv after 30 mins; format: ADME, organism-based; conditions: in vivo, 0.5 h
Lung [14] = assay: Biodistribution in Kunming mouse lung at 2 uCi, iv after 60 mins; format: ADME, organism-based; conditions: in vivo, 1 h
Kidney [15] = assay: Biodistribution in Kunming mouse kidney at 2 uCi, iv after 2 mins; format: ADME, organism-based; conditions: in vivo
Kidney [16] = assay: Biodistribution in Kunming mouse kidney at 2 uCi, iv after 10 mins; format: ADME, organism-based; conditions: in vivo
Kidney [17] = assay: Biodistribution in Kunming mouse kidney at 2 uCi, iv after 30 mins; format: ADME, organism-based; conditions: in vivo, 0.5 h
Kidney [18] = assay: Biodistribution in Kunming mouse kidney at 2 uCi, iv after 60 mins; format: ADME, organism-based; conditions: in vivo, 1 h
Spleen [19] = assay: Biodistribution in Kunming mouse spleen at 2 uCi, iv after 2 mins; format: ADME, organism-based; conditions: in vivo
Spleen [20] = assay: Biodistribution in Kunming mouse spleen at 2 uCi, iv after 10 mins; format: ADME, organism-based; conditions: in vivo
Spleen [21] = assay: Biodistribution in Kunming mouse spleen at 2 uCi, iv after 30 mins; format: ADME, organism-based; conditions: in vivo, 0.5 h
Spleen [22] = assay: Biodistribution in Kunming mouse spleen at 2 uCi, iv after 60 mins; format: ADME, organism-based; conditions: in vivo, 1 h
Liver [23] = assay: Biodistribution in Kunming mouse liver at 2 uCi, iv after 2 mins; format: ADME, organism-based; conditions: in vivo
Liver [24] = assay: Biodistribution in Kunming mouse liver at 2 uCi, iv after 10 mins; format: ADME, organism-based; conditions: in vivo
Liver [25] = assay: Biodistribution in Kunming mouse liver at 2 uCi, iv after 30 mins; format: ADME, organism-based; conditions: in vivo, 0.5 h
Liver [26] = assay: Biodistribution in Kunming mouse liver at 2 uCi, iv after 60 mins; format: ADME, organism-based; conditions: in vivo, 1 h
Brain [27] = assay: Biodistribution in Kunming mouse brain at 2 uCi, iv after 2 mins; format: ADME, organism-based; conditions: in vivo
Brain [28] = assay: Biodistribution in Kunming mouse brain at 2 uCi, iv after 10 mins; format: ADME, organism-based; conditions: in vivo
Brain [29] = assay: Biodistribution in Kunming mouse brain at 2 uCi, iv after 30 mins; format: ADME, organism-based; conditions: in vivo, 0.5 h
Brain [30] = assay: Biodistribution in Kunming mouse brain at 2 uCi, iv after 60 mins; format: ADME, organism-based; conditions: in vivo, 1 h
[31] = Partition coefficient, log P at pH 7.4 phosphate buffer; format: physicochemical
[32] = biological target: T1, Amyloid-beta precursor protein; assay: Binding affinity to beta-amyloid plaques isolated from Alzheimer's disease patient brain at 50 uM by fluorescence micrography

T1 sequence (P05067 whole entry): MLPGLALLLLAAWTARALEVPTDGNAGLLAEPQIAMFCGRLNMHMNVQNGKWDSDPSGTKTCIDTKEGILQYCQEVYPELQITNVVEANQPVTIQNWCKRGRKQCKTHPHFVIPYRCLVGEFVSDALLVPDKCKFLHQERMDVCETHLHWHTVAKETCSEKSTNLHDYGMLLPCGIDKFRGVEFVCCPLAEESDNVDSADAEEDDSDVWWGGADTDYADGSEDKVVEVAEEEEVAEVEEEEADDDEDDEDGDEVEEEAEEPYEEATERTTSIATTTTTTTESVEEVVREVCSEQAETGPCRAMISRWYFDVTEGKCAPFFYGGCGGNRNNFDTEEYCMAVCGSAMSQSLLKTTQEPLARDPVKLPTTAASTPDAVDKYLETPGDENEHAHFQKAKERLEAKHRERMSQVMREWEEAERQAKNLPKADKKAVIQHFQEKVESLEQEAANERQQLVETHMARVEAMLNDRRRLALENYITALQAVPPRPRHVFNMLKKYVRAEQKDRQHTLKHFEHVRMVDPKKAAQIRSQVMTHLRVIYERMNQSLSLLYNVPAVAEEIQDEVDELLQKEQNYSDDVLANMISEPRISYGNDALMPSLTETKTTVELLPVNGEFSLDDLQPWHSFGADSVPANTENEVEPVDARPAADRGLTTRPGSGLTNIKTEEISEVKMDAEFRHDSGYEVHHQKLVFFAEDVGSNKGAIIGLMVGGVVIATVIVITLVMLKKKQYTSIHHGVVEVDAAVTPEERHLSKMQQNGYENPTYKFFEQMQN

## CN1C(=O)c2ccc(Nc3ccccc3)cc2C1=O
[2]
  Ki: 7.6 nM

## CC(=C(C#N)C#N)c1ccc2cc(N(C)CC[18F])ccc2c1
[1]
  Ki: 2.7 nM

## CN1C(=O)c2ccc(Nc3ccc([125I])cc3)cc2C1=O
[2]
  Kd: 0.21 nM
Blood [3]
  Drug uptake: 2.47 % ID/g
Blood [4]
  Drug uptake: 2.74 % ID/g
Blood [5]
  Drug uptake: 2.69 % ID/g
Blood [6]
  Drug uptake: 2.78 % ID/g
Heart [7]
  Drug uptake: 7.4 % ID/g
Heart [8]
  Drug uptake: 3.41 % ID/g
Heart [9]
  Drug uptake: 2.83 % ID/g
Heart [10]
  Drug uptake: 2.24 % ID/g
Lung [11]
  Drug uptake: 6.77 % ID/g
Lung [12]
  Drug uptake: 6.35 % ID/g
Lung [13]
  Drug uptake: 3.47 % ID/g
Lung [14]
  Drug uptake: 2.82 % ID/g
Kidney [15]
  Drug uptake: 9.81 % ID/g
Kidney [16]
  Drug uptake: 6.55 % ID/g
Kidney [17]
  Drug uptake: 3.59 % ID/g
Kidney [18]
  Drug uptake: 2.68 % ID/g
Spleen [19]
  Drug uptake: 5.64 % ID/g
Spleen [20]
  Drug uptake: 6.87 % ID/g
Spleen [21]
  Drug uptake: 3.7 % ID/g
Spleen [22]
  Drug uptake: 2.92 % ID/g
Liver [23]
  Drug uptake: 11.98 % ID/g
Liver [24]
  Drug uptake: 14.38 % ID/g
Liver [25]
  Drug uptake: 5.84 % ID/g
Liver [26]
  Drug uptake: 3.37 % ID/g
Brain [27]
  Drug uptake: 5.16 % ID/g
Brain [28]
  Drug uptake: 3.41 % ID/g
Brain [29]
  Drug uptake: 1.16 % ID/g
Brain [30]
  Drug uptake: 0.59 % ID/g
[31]
  logD: 2.16

## CN1C(=O)c2ccc(Nc3ccc(O)cc3)cc2C1=O
[2]
  Ki: 19.7 nM

## COc1ccc2cc([C@H](C)C(=O)O)ccc2c1 [NAPROXEN]
[1]
  Ki: 5.7 nM

## Nc1c(/N=N/c2ccc(-c3ccc(/N=N/c4cc(S(=O)(=O)O)c5ccccc5c4N)cc3)cc2)cc(S(=O)(=O)O)c2ccccc12 [CONGO RED]
[2]
  Ki: > 1000 nM

## COc1ccc(Nc2ccc3c(c2)C(=O)N(C)C3=O)cc1
[2]
  Ki: 16.3 nM

## CN1C(=O)c2cc(Nc3ccccc3)c(Nc3ccccc3)cc2C1=O
[2]
  Ki: > 1000 nM

## [11CH3]Nc1ccc(-c2nc3ccc(O)cc3s2)cc1 [PITTSBURGH COMPOUND B]
[1]
  Ki: 4.3 nM

## O=C1NC(=O)c2cc(Nc3ccccc3)c(Nc3ccccc3)cc21 [DAPH]
[2]
  Ki: > 1000 nM

## CN1C(=O)c2ccc(Nc3ccc(Br)cc3)cc2C1=O
[2]
  Ki: 3.8 nM
[32]
  Activity: Active

## CN1C(=O)c2ccc(Nc3ccc(I)cc3)cc2C1=O
[2]
  Ki: 0.9 nM
[32]
  Activity: Active

## Cc1ccc(Nc2ccc3c(c2)C(=O)N(C)C3=O)cc1
[2]
  Ki: 4.1 nM
[32]
  Activity: Active
